# Results as given in ChEMBL document CHEMBL5518230, “Identification of a Novel Selective CDK9 Inhibitor for the Treatment of CRC: Design, Synthesis, and Biological Activity Evaluation” (J Med Chem, 2024).
# Calls of active or inactive are those of the source. No cut-off for these calls is given here.
# Key:
# [1] = AUC (0 to infinity) in Sprague-Dawley rat at 10 mg/kg,po administration measured for 0.25 to 24 hrs by LC-MS/MS analysis; type: ADME, organism-based; details: in vivo, time 0.25-24 hrs
# [2] = target: Cyclin-dependent kinase 5 (Homo sapiens, UniProt Q00535); assay: Inhibition of CDK5 (unknown origin)
# Sequence of Cyclin-dependent kinase 5 (Q00535 whole entry): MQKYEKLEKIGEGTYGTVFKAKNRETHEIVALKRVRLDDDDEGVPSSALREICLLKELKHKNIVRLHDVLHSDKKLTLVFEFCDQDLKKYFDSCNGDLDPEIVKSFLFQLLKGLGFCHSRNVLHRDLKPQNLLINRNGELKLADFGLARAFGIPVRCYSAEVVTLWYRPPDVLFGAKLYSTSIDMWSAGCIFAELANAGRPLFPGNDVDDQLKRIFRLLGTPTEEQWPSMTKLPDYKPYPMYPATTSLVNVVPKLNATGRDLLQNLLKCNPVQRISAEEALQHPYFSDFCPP
# [3] = Toxicity in BALB/c mouse xenografted with human HCT-116 cells assessed as lung morphological change at 50 mg/kg,po administrated once daily for 3 weeks by hematoxylin and eosin staining based microscopic analysis; type: organism-based; details: in vivo, 504 h
# [4] = MRT (0 to t) in Sprague-Dawley rat at 2 mg/kg,iv administration measured for 0.25 to 24 hrs by LC-MS/MS analysis; type: ADME, organism-based; details: in vivo, time 0.25-24 hrs
# [5] = Cmax in Sprague-Dawley rat at 10 mg/kg,po administration measured for 0.25 to 24 hrs by LC-MS/MS analysis; type: ADME, organism-based; details: in vivo, time 0.25-24 hrs
# CYP1A2 = target: T1, CYP1A2 (Homo sapiens, UniProt P05177); assay: Inhibition of CYP1A2 in human liver microsomes using alpha-naphthoflavone as […] at 10 uM preincubated for 10 mins followed by NADPH addition measured after 15 mins by LC-MS/MS analysis relative to control; type: ADME, Microsome; details: time 25 min
# T1 sequence (P05177 whole entry): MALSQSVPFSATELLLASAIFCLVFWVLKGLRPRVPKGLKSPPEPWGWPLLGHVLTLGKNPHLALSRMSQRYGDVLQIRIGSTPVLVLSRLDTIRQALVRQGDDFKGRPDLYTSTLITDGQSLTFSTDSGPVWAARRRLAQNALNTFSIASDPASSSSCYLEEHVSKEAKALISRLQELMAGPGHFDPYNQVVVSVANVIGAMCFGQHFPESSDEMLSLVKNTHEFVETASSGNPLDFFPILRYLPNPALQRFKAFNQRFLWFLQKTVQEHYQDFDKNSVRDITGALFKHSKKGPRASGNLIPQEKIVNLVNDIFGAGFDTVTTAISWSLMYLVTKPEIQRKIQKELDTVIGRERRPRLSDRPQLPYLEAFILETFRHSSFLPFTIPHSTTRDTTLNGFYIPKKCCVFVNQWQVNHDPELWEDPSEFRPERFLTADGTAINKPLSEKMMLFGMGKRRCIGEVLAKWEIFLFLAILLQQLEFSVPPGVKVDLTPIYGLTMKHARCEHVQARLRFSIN
# HCT-116 [6] = assay: Induction of apoptosis in human HCT-116 cells assessed as downregulation of XIAP mRNA expression at 25 to 400 nM incubated for 48 hrs by qRT-PCR analysis; type: functional, cell-based; details: dose 25-400 nM
# HCT-116 [7] = assay: Antitumor activity against human HCT-116 cells xenografted in BALB/c mouse assessed as tumor growth inhibition at po administrated once daily for 3 weeks; type: functional, organism-based
# [8] = Bioavailability in Sprague-Dawley rat at 2 mg/kg,iv administration measured for 0.25 to 24 hrs by LC-MS/MS analysis; type: ADME, organism-based; details: in vivo, time 0.25-24 hrs
# [9] = Tmax in Sprague-Dawley rat at 2 mg/kg,iv administration measured for 0.25 to 24 hrs by LC-MS/MS analysis; type: ADME, organism-based; details: in vivo, time 0.25-24 hrs
# [10] = target: Cyclin-dependent kinase 12 (Homo sapiens, UniProt Q9NYV4); assay: Inhibition of CDK12 (unknown origin)
# Sequence of Cyclin-dependent kinase 12 (Q9NYV4 whole entry): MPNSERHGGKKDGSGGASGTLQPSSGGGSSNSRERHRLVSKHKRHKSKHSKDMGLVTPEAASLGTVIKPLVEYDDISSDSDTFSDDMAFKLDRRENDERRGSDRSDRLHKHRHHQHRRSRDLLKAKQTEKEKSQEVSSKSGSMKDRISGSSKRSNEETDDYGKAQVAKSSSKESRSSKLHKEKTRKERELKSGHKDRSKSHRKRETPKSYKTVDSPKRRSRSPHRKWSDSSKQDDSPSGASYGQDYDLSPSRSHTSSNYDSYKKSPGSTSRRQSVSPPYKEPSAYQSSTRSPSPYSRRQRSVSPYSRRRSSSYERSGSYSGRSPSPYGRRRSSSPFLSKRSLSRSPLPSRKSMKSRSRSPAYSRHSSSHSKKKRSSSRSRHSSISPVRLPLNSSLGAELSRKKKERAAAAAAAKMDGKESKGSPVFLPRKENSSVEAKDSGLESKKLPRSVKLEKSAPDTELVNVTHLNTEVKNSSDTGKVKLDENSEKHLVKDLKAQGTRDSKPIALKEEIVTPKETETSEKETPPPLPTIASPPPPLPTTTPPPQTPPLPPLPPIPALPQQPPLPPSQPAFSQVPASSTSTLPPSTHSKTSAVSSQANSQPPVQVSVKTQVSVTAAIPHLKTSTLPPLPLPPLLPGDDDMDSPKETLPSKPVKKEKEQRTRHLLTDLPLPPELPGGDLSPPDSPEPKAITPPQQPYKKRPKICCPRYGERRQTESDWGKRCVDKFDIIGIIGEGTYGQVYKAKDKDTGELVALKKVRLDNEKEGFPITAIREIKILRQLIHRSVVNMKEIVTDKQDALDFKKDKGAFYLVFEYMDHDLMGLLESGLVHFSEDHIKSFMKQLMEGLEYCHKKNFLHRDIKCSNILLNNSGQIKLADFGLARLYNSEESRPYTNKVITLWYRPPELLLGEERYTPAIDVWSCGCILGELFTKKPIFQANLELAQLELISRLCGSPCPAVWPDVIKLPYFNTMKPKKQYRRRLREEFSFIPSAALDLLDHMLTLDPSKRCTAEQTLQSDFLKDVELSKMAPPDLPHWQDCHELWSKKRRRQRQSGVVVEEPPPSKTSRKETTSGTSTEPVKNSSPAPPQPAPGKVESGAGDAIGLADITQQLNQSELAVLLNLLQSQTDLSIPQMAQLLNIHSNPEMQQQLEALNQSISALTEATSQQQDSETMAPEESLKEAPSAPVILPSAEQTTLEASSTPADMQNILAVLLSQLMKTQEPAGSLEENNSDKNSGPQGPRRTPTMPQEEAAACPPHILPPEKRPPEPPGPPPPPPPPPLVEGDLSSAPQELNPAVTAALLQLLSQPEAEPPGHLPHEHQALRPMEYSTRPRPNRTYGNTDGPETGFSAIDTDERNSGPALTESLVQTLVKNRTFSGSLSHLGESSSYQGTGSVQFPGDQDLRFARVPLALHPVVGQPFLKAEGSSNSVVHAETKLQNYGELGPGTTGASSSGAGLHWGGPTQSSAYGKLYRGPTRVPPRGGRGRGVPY
# [11] = Apparent volume of distribution in Sprague-Dawley rat at 2 mg/kg,iv administration measured for 0.25 to 24 hrs by LC-MS/MS analysis; type: ADME, organism-based; details: in vivo, time 0.25-24 hrs, read-out: Vz
# HCT-116 [12] = assay: Antitumor activity against human HCT-116 cells xenografted in BALB/c mouse assessed as downregulation of RNA polymerase II phosphorylation at 50 mg/kg,po administrated once daily for 3 weeks by Western blotting analysis; type: functional, organism-based
# HCT-116 [13] = assay: Antitumor activity against human HCT-116 cells xenografted in BALB/c mouse assessed as downregulation of PARP expression at 25 mg/kg,po administrated once daily for 3 weeks by Western blotting analysis; type: functional, organism-based
# [14] = Stability in human liver microsomes assessed as compound remaining at 100 uM measured upto 60 mins in presence of NADPH by LC-MS/MS analysis; type: ADME, Microsome; details: read-out: Stability
# [15] = Toxicity in BALB/c mouse xenografted with human HCT-116 cells assessed as liver morphological change at 25 mg/kg,po administrated once daily for 3 weeks by hematoxylin and eosin staining based microscopic analysis; type: organism-based; details: in vivo, 504 h
# [16] = C0 in Sprague-Dawley rat at 2 mg/kg,iv administration measured for 0.25 to 24 hrs by LC-MS/MS analysis; type: ADME, organism-based; details: in vivo, time 0.25-24 hrs
# [17] = Toxicity in BALB/c mouse xenografted with human HCT-116 cells assessed as heart morphological change at 50 mg/kg,po administrated once daily for 3 weeks by hematoxylin and eosin staining based microscopic analysis; type: organism-based; details: in vivo, 504 h
# [18] = Toxicity in BALB/c mouse xenografted with human HCT-116 cells assessed as spleen morphological change at 25 mg/kg,po administrated once daily for 3 weeks by hematoxylin and eosin staining based microscopic analysis; type: organism-based; details: in vivo, 504 h
structure (smiles),measurement,setting,value
CC(C)n1nnc2ccc(-c3ccnc(Nc4cc(C(=O)N5CCCN(C)CC5)ccn4)c3)cc21,AUC(0-inf),[1],199 ng·h/mL
same,IC50,[2],> 500 nM
same,Activity,[3],Non-Toxic
same,MRT last,[4],88.8 min
same,Cmax,[5],39 ng/mL
same,"inhibition at 0.25 h, 10 µM",CYP1A2,34.6%
same,Activity,HCT-116 [6],Active
same,Activity,HCT-116 [7],Dose-Dependent Effect
same,bioavailability,[8],12.3%
same,Tmax,[9],4.98 min
same,IC50,[10],> 500 nM
same,Vd,[11],13.4 L/kg
same,Activity,HCT-116 [12],Active
same,Activity,HCT-116 [13],Active
same,"remaining at 1 h, 100 µM",[14],19.6%
same,Activity,[15],Non-Toxic
same,C0,[16],459 ng/mL
same,Activity,[17],Non-Toxic
same,Activity,[18],Non-Toxic
